pKi: −log10 of the molar value.
Legend:
[1] = Compound was tested for the competitive inhibition against mouse brain N-Myristoyltransferase; type: tissue-based
[2] = Michaelis-Menten constant against myristoyl CoA was determined in mouse; type: organism-based

pKi [1]: 7.62
Km [2]: 0.4 µM
Structure (SMILES): CCCCCCCCCCCCCC(=O)CSCCNC(=O)CCNC(=O)C(O)C(C)(C)COP(=O)(O)OP(=O)(O)OC[C@H]1O[C@@H](n2cnc3c(N)ncnc32)[C@H](O)[C@@H]1OP(=O)(O)O (some centres not stated)
